Experiments:
[1] = test system: PHA-stimulated human lymphocytes; experiment: Inhibition of mitogen (PHA)-stimulated growth of human T-cells; type: cell-based
Text: Results are tabulated below.

[2] = test system: VX2 carcinoma-induced corneal neovascularization; experiment: Suppression of tumor-induced corneal neovascularization in rabbits; type: in vivo, rabbit; conditions: ELVAX 40 P pellet, day 21
Text: The implantation of VX2 carcinoma into the rabbit cornea results in the induction of new blood vessels within several days (Tamargo et al., Cancer Research 51, 1991, 672-675). It is believed that this carcinoma secretes growth factors that stimulate new blood-vessel growth. Thus, this model is indicative in vivo evidence of therapeutic utility in the treatment of pathological disorders of vascularization, including the metastatic spread of tumors, diabetic retinopathy, macular degeneration, and rheumatoid arthritis.
This experiment followed the published protocol--tumor was implanted adjacent to a polymer containing a concentration of the agent to be evaluated. The polymer releases the agent slowly in the immediate neighborhood of the tumor, providing sustained high local concentrations of the agent. In this experiment, squalamine introduced into a pellet of ELVAX 40 P (DuPont, Wilmington, Del.) inhibited new blood vessel formation by about 60% at days 7 and 14, and by about 25% at day 21.

human melanoma 1205Lu = experiment: Suppression of growth of human melanoma in RAG-1 mice; type: in vivo
Text: As apparent from FIG. 5, melanoma 1205Lu develops aggressively in RAG-1 mice after implantation.

[3] = test system: bacteria, fungi and protozoa; conditions: cited from earlier work
[4] = test system: human epithelial cell line MCF 10A; experiment: Growth inhibition in vitro (absorbance at 600 nm); type: cell-based; conditions: 10 μg/ml; FIG. 3B
B16 melanoma = experiment: Suppression of growth of B16 melanoma in C57B mice; type: in vivo, mouse
Protocol: The growth of B16 melanoma in C57B mice is dependent upon neovascularization.
Using the growth of B16 melanoma cells in C57B mice, a recognized model for the evaluation of inhibitors of angiogenesis on the growth of cancers, the effects of subcutaneous, intraperitoneal and oral administration of squalamine were evaluated.

CC(C)[C@@H](CC[C@@H](C)[C@H]1CC[C@H]2[C@@H]3[C@H](O)C[C@H]4C[C@@H](NCCCNCCCCN)CC[C@]4(C)[C@H]3CC[C@]12C)OS(=O)(=O)O [squalamine]
inhibition of blast transformation [1]: Some effect
inhibition of new blood vessel formation [2]: about 25%
suppression of tumor growth (human melanoma 1205Lu; 10, 20, 40 mg/kg/d, FIG. 5): clear suppression of tumor growth in a dose-dependent fashion
reversibility after cessation of treatment (human melanoma 1205Lu; words): reversible
antibiotic spectrum [3]: broad-spectrum antibiotic, killing bacteria, fungi and protozoa
growth of epithelial line [4]: no effect
body weight and hematologic parameters (B16 melanoma; B16-bearing mice): no significant depression
suppression of tumor volume (B16 melanoma; intraperitoneal, FIGS. 4B, 4B-1): dose-dependent suppression of tumor volume
suppression of tumor volume (B16 melanoma; oral, FIGS. 4C, 4C-1): dose-dependent suppression of tumor volume
suppression of tumor volume (B16 melanoma; subcutaneous, FIGS. 4A, 4A-1): dose-dependent suppression of tumor volume

From patent publication US5994336A, “Method of inhibiting proliferation of cells by administering an aminosterol compound” (priority 1995, dated 1999)
